# Measurements as given in US20240190841A1, “MODULATORS OF BCL6 PROTEOLYSIS AND ASSOCIATED METHODS OF USE” (Arvinas Operations, Inc., priority 2022, published 2024).
# Target: T1, BCL6 (Homo sapiens, UniProt P41182)
# T1 construct: endogenous in cells; host or cells: T47D breast cancer epithelial cells
# Experiment: Immunofluorescence high content imaging of BCL6 degradation in T47D cells
# Format: cell-based
# Settings: T47D breast cancer epithelial cells, 3 days incubation
# Experimental: Immunofluorescence Protocol for High Content Imaging of BCL6
# T47D cells were seeded in 100 μl volume of RPMI11640-10% FBS in a 96-well black/clear bottom plates for adherent lines (Corning #3904).
# Day 1. T47D breast cancer epithelial cells were seeded at a density so that confluence is ˜70-90% at endpoint. Cells were seeded at 7K/0.1 mL/well the morning prior to the addition of exemplary bifunctional degradation compounds.
# Day 2. Prepare an 11 point 3-fold serial dilution of exemplary bifunctional compound in DMSO and aliquot an appropriate volume to cell growth media to generate a 2× final concentration of exemplary bifunctional compound. Add an equal volume (0.1 ml) of 2× exemplary bifunctional compound/media mix to previously plated cells, for a final top concentration in aqueous cell growth media of 0.1 or 1 μM. Incubate for 3 days at 37° C., 5% CO2.
# Day 5 Immunofluorescence. Discard cell media. Wash wells with 200 μl of room temperature phosphate-buffered saline (PBS). Prepared 4% paraformaldehyde (PFA) from 16% PFA (Electron Microscopy Sciences #15710) using 1×PBS. Fifty μL of 4% PF was added to each well and incubate for 15 minutes at room temperature to fix the cells. The PFA was aspirated and the cells washed twice with PBS (200 μL)).
# Prepared 0.1% Triton X-100 in PBS using 10% triton X-100 stock. The cells were permeabilized by adding 100 μL of the 0.1% Triton X-100 in PBS to each well to permeabilize cells and incubating at room temperature for 15 minutes. Cells were washed twice with PBS.
# Prepared 3% BSA/PBS (from Thermofisher #37515 Blocker BSA in TBS, 10%), and 100 μL was added to each well. The cells were incubated for at least 1 hour at room temperature.
# Prepared 1% BSA/PBS using Blocker BSA/PBS, and the 3% BSA/PBS removed from the wells.
# For no primary antibody controls, 50 μL 1% BSA/PBS was added.
# Primary antibody (BCL6 Rb Ab, CST-14895, Cell Signaling) was diluted 1:300 in 1% BSA/PBS using Blocker BSA/PBS.
# Fifty μl of primary antibody added to all remaining wells (i.e., all wells other than the primary antibody controls) and the cells were incubated overnight at 4° C. with slow orbital movement.
# Day 6. Contents of the wells was removed and the cells washed four times with 200 μL PBS. 1% BSA/PBS was prepared using Blocker BSA in PBS.
# Diluted secondary antibody goat anti-Rb IgG Alexa-488 1:1000, and cell mask-Alexa-647 1:3000 in 1% BSA/PBS in the same mix. Add 50 μL to each well and incubate at room temperature for 1 hour in the dark.
# Cells were washed three times with 200 μL PBS, and then incubated for 10 minutes with 100 μL Hoechst dye at 1 μg/mL (20 mM stock) to stain cell nuclei. Wells were then washed with 200 μl PBS, and 100 μL of PBS was added to each well and the plate covered plate with a plastic opaque cover. Plates were stored at […] and covered in aluminum foil until imaged.
# Plates were equilibrated to room temperature prior to reading. The bottom of the plate was wiped with 70% isopropanol immediately prior to imaging.
# Imaging: • 10×, 4 fields/well, include Top hat smoothing in the analysis protocol.
# Supplies/Reagents: • 16% paraformaldehyde: Electron Microscopy Sciences #15710 • Hoechst: Thermofisher #62249 • Blocker BSA in PBS, 10%: Thermofisher #37515 • Blocker BSA in TBS, 10%: Thermofisher #37520 • Goat anti-rabbit or mouse AlexaFluor-488: Thermofisher #A11008 • Cell mask deep red AlexaFluor-647: Thermofisher #C10046 • Wash buffer, PBS: 20×PBS, Thermofisher
Compound,DC50,Dmax
"CNC(=O)COc1cc2cc(Nc3nc(N4CCC(O[C@H]5C[C@H](N6CCN(c7ccc8ncn(C9CCC(=O)NC9=O)c8c7)CC6)C5)CC4)ncc3Cl)ccc2n(C(C)C)c1=O (some centres unmarked) [Compound 24, 2-({6-[(5-chloro-2-{4-[(1r,3r)-3-{4-[1-(2,6-dioxopiperidin-3-yl)-1H-1,3-benzodiazol-6-yl]piperazin-1-yl}cyclobutoxy]piperidin-1-yl}pyrimidin-4-yl)amino]-2-oxo-1-(propan-2-yl)-1,2-dihydroquinolin-3-yl}oxy)-N-methylacetamide]",< 10 nM,≥ 70%
"CNC(=O)COc1cc2cc(Nc3nc(N4CCC(O[C@H]5C[C@H](N6CCN(c7cc(OC)c8c(c7)n(C)c(=O)n8C7CCC(=O)NC7=O)CC6)C5)CC4)ncc3Cl)ccc2n(C(C)C)c1=O (some centres unmarked) [Compound 25, 2-({6-[(5-chloro-2-{4-[(1r,3r)-3-{4-[1-(2,6-dioxopiperidin-3-yl)-7-methoxy-3-methyl-2-oxo-2,3-dihydro-1H-1,3-benzodiazol-5-yl]piperazin-1-yl}cyclobutoxy]piperidin-1-yl}pyrimidin-4-yl)amino]-2-oxo-1-(propan-2-yl)-1,2-dihydroquinolin-3-yl}oxy)-N-methylacetamide]",< 10 nM,
"CNC(=O)COc1cc2cc(Nc3nc(N4CCC(O[C@H]5C[C@H](N6CCN(c7cc(C)c8c(c7)n(C)c(=O)n8C7CCC(=O)NC7=O)CC6)C5)CC4)ncc3Cl)ccc2n(C(C)C)c1=O (some centres unmarked) [Compound 26, 2-({6-[(5-chloro-2-{4-[(1r,3r)-3-{4-[1-(2,6-dioxopiperidin-3-yl)-3,7-dimethyl-2-oxo-2,3-dihydro-1H-1,3-benzodiazol-5-yl]piperazin-1-yl}cyclobutoxy]piperidin-1-yl}pyrimidin-4-yl)amino]-2-oxo-1-(propan-2-yl)-1,2-dihydroquinolin-3-yl}oxy)-N-methylacetamide]",10 to 50 nM,50 to 70%
"CNC(=O)COc1cc2cc(Nc3nc(N4CCC(O[C@H]5C[C@H](N6CCN(c7cc(F)c8c(c7F)n(C)c(=O)n8C7CCC(=O)NC7=O)CC6)C5)CC4)ncc3Cl)ccc2n(C(C)C)c1=O (some centres unmarked) [Compound 27, 2-({6-[(5-chloro-2-{4-[(1r,3r)-3-{4-[1-(2,6-dioxopiperidin-3-yl)-4,7-difluoro-3-methyl-2-oxo-2,3-dihydro-1H-1,3-benzodiazol-5-yl]piperazin-1-yl}cyclobutoxy]piperidin-1-yl}pyrimidin-4-yl)amino]-2-oxo-1-(propan-2-yl)-1,2-dihydroquinolin-3-yl}oxy)-N-methylacetamide]",< 10 nM,≥ 70%
"CNC(=O)COc1cc2cc(Nc3nc(N4CCC(O[C@H]5C[C@H](N6CCN(c7ccc8c(c7F)n(C(C)C)c(=O)n8C7CCC(=O)NC7=O)CC6)C5)CC4)ncc3Cl)ccc2n(C(C)C)c1=O (some centres unmarked) [Compound 28, 2-({6-[(5-chloro-2-{4-[(1r,3r)-3-{4-[1-(2,6-dioxopiperidin-3-yl)-4-fluoro-2-oxo-3-(propan-2-yl)-2,3-dihydro-1H-1,3-benzodiazol-5-yl]piperazin-1-yl}cyclobutoxy]piperidin-1-yl}pyrimidin-4-yl)amino]-2-oxo-1-(propan-2-yl)-1,2-dihydroquinolin-3-yl}oxy)-N-methylacetamide]",< 10 nM,≥ 70%
"CNC(=O)COc1cc2cc(Nc3nc(N4CCC(O[C@H]5C[C@H](N6CCN(c7cc(F)c8c(c7)n(C(C)C)c(=O)n8C7CCC(=O)NC7=O)CC6)C5)CC4)ncc3Cl)ccc2n(C(C)C)c1=O (some centres unmarked) [Compound 29, 2-({6-[(5-chloro-2-{4-[(1r,3r)-3-{4-[1-(2,6-dioxopiperidin-3-yl)-7-fluoro-2-oxo-3-(propan-2-yl)-2,3-dihydro-1H-1,3-benzodiazol-5-yl]piperazin-1-yl}cyclobutoxy]piperidin-1-yl}pyrimidin-4-yl)amino]-2-oxo-1-(propan-2-yl)-1,2-dihydroquinolin-3-yl}oxy)-N-methylacetamide]",< 10 nM,≥ 70%
"CNC(=O)COc1cc2cc(Nc3nc(N4CCC(O[C@H]5C[C@H](N6CCN(c7cc(C)c8c(c7)CN(C7CCC(=O)NC7=O)C8=O)CC6)C5)CC4)ncc3Cl)ccc2n(C(C)C)c1=O (some centres unmarked) [Compound 36, 2-({6-[(5-chloro-2-{4-[(1r,3r)-3-{4-[2-(2,6-dioxopiperidin-3-yl)-7-methyl-1-oxo-3H-isoindol-5-yl]piperazin-1-yl}cyclobutoxy]piperidin-1-yl}pyrimidin-4-yl)amino]-1-isopropyl-2-oxoquinolin-3-yl}oxy)-N-methylacetamide]",< 10 nM,50 to 70%
"CNC(=O)COc1cc2cc(Nc3nc(N4CCC(O[C@H]5C[C@H](N6CCC(c7cc(C)c8c(c7)CN(C7CCC(=O)NC7=O)C8=O)CC6)C5)CC4)ncc3Cl)ccc2n(C(C)C)c1=O (some centres unmarked) [Compound 37, 2-({6-[(5-chloro-2-{4-[(1r,3r)-3-{4-[2-(2,6-dioxopiperidin-3-yl)-7-methyl-1-oxo-3H-isoindol-5-yl]piperidin-1-yl}cyclobutoxy]piperidin-1-yl}pyrimidin-4-yl)amino]-1-isopropyl-2-oxoquinolin-3-yl}oxy)-N-methylacetamide]",< 10 nM,≥ 70%
"CNC(=O)COc1cc2cc(Nc3nc(N4CCC(O[C@H]5C[C@H](N6CC[C@@H](c7cc(C)c8c(c7F)CN([C@H]7CCC(=O)NC7=O)C8=O)[C@@H](F)C6)C5)CC4)ncc3Cl)ccc2n(C(C)C)c1=O [Compound 38, 2-({6-[(5-chloro-2-{4-[(1r,3r)-3-[(3R,4S)-4-{2-[(3S)-2,6-dioxopiperidin-3-yl]-4-fluoro-7-methyl-1-oxo-3H-isoindol-5-yl}-3-fluoropiperidin-1-yl]cyclobutoxy]piperidin-1-yl}pyrimidin-4-yl)amino]-1-isopropyl-2-oxoquinolin-3-yl}oxy)-N-methylacetamide]",< 10 nM,50 to 70%
"CNC(=O)COc1cc2cc(Nc3nc(N4CCC(O[C@H]5C[C@H](N6CC[C@H](c7cc(C)c8c(c7F)CN([C@H]7CCC(=O)NC7=O)C8=O)[C@H](F)C6)C5)CC4)ncc3Cl)ccc2n(C(C)C)c1=O [Compound 39, 2-({6-[(5-chloro-2-{4-[(1r,3r)-3-[(3S,4R)-4-{2-[(3S)-2,6-dioxopiperidin-3-yl]-4-fluoro-7-methyl-1-oxo-3H-isoindol-5-yl}-3-fluoropiperidin-1-yl]cyclobutoxy]piperidin-1-yl}pyrimidin-4-yl)amino]-1-isopropyl-2-oxoquinolin-3-yl}oxy)-N-methylacetamide]",< 10 nM,≥ 70%
"CNC(=O)COc1cc2cc(Nc3nc(N4CCN(C(=O)CC5(O)CCN(c6ccc7c(c6F)CN(C6CCC(=O)NC6=O)C7=O)CC5)CC4)ncc3Cl)ccc2n(C(C)C)c1=O (centres unmarked) [Compound 40, 2-{[6-({5-chloro-2-[4-(2-{1-[2-(2,6-dioxopiperidin-3-yl)-4-fluoro-1-oxo-3H-isoindol-5-yl]-4-hydroxypiperidin-4-yl}acetyl)piperazin-1-yl]pyrimidin-4-yl}amino)-1-isopropyl-2-oxoquinolin-3-yl]oxy}-N-methylacetamide]",< 10 nM,≥ 70%
"CNC(=O)COc1cc2cc(Nc3nc(N4CCC(O)(CC(=O)N5CCN(c6ccc7c(c6F)CN(C6CCC(=O)NC6=O)C7=O)CC5)CC4)ncc3Cl)ccc2n(C(C)C)c1=O (centres unmarked) [Compound 41, 2-{[6-({5-chloro-2-[4-(2-{4-[2-(2,6-dioxopiperidin-3-yl)-4-fluoro-1-oxo-2,3-dihydro-1H-isoindol-5-yl]piperazin-1-yl}-2-oxoethyl)-4-hydroxypiperidin-1-yl]pyrimidin-4-yl}amino)-2-oxo-1-(propan-2-yl)-1,2-dihydroquinolin-3-yl]oxy}-N-methylacetamide]",< 10 nM,≥ 70%
